Test results: patent US5192672A, “Method for oxidizing hydrocarbons with a hydroxylase from a methane monooxygenase” (Amoco Corporation, priority 1991, dated 1993)
Converted amounts (≈) assume the structure as drawn.

What was measured:
[1] = target: T1, hydroxylase of methane monooxygenase (Methylosinus trichosporium, UniProt P27353); experiment: Multiple turnover oxidation of hydrocarbon substrates using hydrogen peroxide; type: biochemical, Methylosinus trichosporium OB3b; conditions: H2O2 coupled
T1 construct: The novel high activity hydroxylase of the present invention was obtained from Methylosinus trichosporium OB3b; endogenous in cells; host or cells: Methylosinus trichosporium OB3b; hydroxylase purified from the bacteria
T1 sequence (P27353 1-526): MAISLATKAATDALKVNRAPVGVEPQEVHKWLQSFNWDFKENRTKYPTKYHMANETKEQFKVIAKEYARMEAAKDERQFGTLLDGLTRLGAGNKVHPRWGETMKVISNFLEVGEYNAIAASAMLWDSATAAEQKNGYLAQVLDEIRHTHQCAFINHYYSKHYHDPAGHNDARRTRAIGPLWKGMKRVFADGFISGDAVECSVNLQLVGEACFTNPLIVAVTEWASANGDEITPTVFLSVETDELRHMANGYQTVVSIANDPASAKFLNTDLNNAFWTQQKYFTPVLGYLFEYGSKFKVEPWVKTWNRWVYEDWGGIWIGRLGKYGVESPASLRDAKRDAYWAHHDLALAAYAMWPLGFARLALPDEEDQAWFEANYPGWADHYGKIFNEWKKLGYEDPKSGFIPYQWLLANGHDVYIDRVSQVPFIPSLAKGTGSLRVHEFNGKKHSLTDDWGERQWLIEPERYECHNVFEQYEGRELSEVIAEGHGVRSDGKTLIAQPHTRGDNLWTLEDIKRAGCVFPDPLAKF
T1 sequence (P27354 1-394 partner): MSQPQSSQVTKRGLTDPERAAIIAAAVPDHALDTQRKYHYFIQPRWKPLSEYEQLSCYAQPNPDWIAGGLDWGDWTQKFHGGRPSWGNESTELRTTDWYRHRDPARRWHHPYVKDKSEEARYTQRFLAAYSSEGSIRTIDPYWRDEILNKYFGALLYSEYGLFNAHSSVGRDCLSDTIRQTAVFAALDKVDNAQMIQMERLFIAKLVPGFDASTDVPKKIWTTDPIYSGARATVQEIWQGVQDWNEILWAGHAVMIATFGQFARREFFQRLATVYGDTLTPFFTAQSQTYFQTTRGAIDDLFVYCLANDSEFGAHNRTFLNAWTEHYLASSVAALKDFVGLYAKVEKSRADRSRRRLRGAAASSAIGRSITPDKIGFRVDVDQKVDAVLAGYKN
T1 sequence (P27355 1-169 partner): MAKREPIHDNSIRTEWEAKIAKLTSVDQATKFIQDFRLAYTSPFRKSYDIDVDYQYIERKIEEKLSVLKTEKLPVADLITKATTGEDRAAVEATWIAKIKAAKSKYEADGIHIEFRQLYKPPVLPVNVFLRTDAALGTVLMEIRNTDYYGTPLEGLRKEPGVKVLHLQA
Procedure: . Substrates were injected into the respective reaction vials as follows: gaseous substrates (3 ml) were injected into the headspace of the reaction vial; liquid substrates (50 μls) were injected directly into the protein solution. The protein solution and substrate were allowed to equilibrate for five minutes in a water bath shaker at 30° C. Each reaction was initiated by injection of H2 O2 (20 μl of 1.0 MH2 O2 in water) to a concentration of about 100 mM H2 O2. After an appropriate period (2 minutes) a portion of the reaction mixture was removed, the reaction terminated, and the sample prepared for analysis.
Samples were analyzed for products as follows: The benzene, substituted benzenes and pyridine samples were analyzed by High Pressure Liquid Chromatography (HPLC). The reaction in each sample was quenched by addition of 2 volumes of ethanol or 3% trichloroacetic acid which caused precipitation of the hydroxylase. The samples were centrifuged for two minutes (10,800×g) and the precipitated hydroxylase removed. A portion of each supernatant was injected into a Beckman HPLC equipped with a reverse-phase column (C18 matrix) and UV detection capability.
All other samples were analyzed by gas chromatography. Except for the methane sample, all analyses were performed as follows: The reaction in each sample was quenched by addition of an equal volume chloroform (CHCl3) followed by vortexing for a brief period. The sample was centrifuged for two minutes (10,800×g) to separate the CHCl3 layer from the sample solution. A portion of the CHCl3 layer was injected into a Hewlett Packard 5890A gas chromatograph (100% methylsilicone column matrix) for analysis of the products.
For the methane sample, the reaction was quenched by addition of 0.1M acid to a pH of 2.9. The resulting aqueous phase was separated from the hydroxylase using a YM30 Centricon ultrafiltration unit. The filtrate was analyzed for methanol by gas chromatography.
Products resulting from the various substrates were identified by comparison with standard compounds.

[2] = 90 psi propane, up to two days, t-butyl peroxide; cited from earlier work
methane monooxygenase = target: T2, methane monooxygenase (Methylococcus capsulatus, UniProt P22869); conditions: Table II, purified component from Methylococcus capsulatus (Bath); cited from earlier work
T2 construct: methane monooxygenases isolated from the Type I organism, Methylococcus capsulatus (Bath); host or cells: Methylococcus capsulatus (Bath)
T2 sequence (P22869 whole entry, looked up): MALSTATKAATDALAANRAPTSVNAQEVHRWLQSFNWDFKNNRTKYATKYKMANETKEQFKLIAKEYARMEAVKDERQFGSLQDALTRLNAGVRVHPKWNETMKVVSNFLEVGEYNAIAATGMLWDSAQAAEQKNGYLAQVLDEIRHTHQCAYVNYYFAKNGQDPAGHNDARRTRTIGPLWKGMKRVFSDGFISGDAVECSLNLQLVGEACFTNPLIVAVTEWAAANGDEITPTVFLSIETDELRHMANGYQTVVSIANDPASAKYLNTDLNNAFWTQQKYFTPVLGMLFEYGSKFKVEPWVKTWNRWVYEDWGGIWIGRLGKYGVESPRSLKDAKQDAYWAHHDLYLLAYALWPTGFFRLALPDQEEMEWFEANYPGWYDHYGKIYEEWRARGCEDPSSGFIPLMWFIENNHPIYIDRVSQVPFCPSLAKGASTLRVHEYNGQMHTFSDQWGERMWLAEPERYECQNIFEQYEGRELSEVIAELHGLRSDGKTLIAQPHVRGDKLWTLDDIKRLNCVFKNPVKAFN

physchem = type: physicochemical; conditions: water, 30° C.
[3] = target: T3, complete methane monooxygenase (Methylosinus trichosporium, UniProt P27353); experiment: Polarographic assay of methane monooxygenase activity with furan as substrate; type: biochemical, Methylosinus trichosporium OB3b
T3 construct: A soluble three-component methane monooxygenase from the Type II methanotroph Methylosinus trichosporium OB3b was purified to homogeneity; endogenous in cells; host or cells: Methylosinus trichosporium OB3b, grown on methane; components purified from cell-free extract
T3 sequence (P27353 1-526): T1 sequence (P27353 1-526)
T3 sequence (P27354 1-394 partner): T1 sequence (P27354 1-394 partner)
T3 sequence (P27355 1-169 partner): T1 sequence (P27355 1-169 partner)
Procedure: Enzyme Assays--Assays of bacterial cells were performed at 30° C. using cells harvested directly from the fermentor vessel. Methane oxidation was measured by gas chromatography by monitoring depletion of methane from the headspace of 30 ml reaction vials. Oxygen consumption was measured polarographically as described by Arciero et al. (J. Biol. Chem. 258, 14981-14991, 1983). The bacterial suspension was supplemented with 100 μM formaldehyde before gas chromatographic assays for conversion of propene to propene oxide in order to allow adequate regeneration of NADH by endogenous formaldehyde and formate dehydrogenases. Gas chromatographic and polarographic assays of the methane monooxygenase system were performed as described by Fox et al. (Biochem. Biophys. Res. Comm. 154, 165-170, 1988). Unless explicitly stated, the specific activity values reported for the enzyme components are those observed during the hydroxylation reaction in the presence of optimal concentrations of the other components of the methane monooxygenase. The optimal concentrations were determined by varying the concentration of one component relative to fixed concentrations of the other two components. In routine polarographic assays of methane monooxygenase activity, furan is an acceptable substrate with characteristics which facilitate the assay. […]

CC(C)C [Isobutane]
Relative Distribution (Percent), product 2-methyl-1-propanol [1]: 61%
Relative Distribution (Percent), product 2-methyl-2-propanol [1]: 39%

O=[N+]([O-])c1ccccc1 [Nitrobenzene]
Relative Distribution (Percent), product m-Nitrophenol [1]: 53%
Relative Distribution (Percent), product o-Nitrophenol [1]: 5%
Relative Distribution (Percent), product p-Nitrophenol [1]: 42%

CCC(C)C [Isopentane]
Relative Distribution (Percent), product 2-methyl-1-butanol [1]: 25%
Relative Distribution (Percent), product 2-methyl-2-butanol [1]: 41%
Relative Distribution (Percent), product 3-methyl-1-butanol [1]: 11%
Relative Distribution (Percent), product 3-methyl-2-butanol [1]: 24%

c1ccncc1 [Pyridine]
Relative Distribution (Percent), product Pyridine-N-oxide [1]: 100%

Fe2 O(OAc)2 Cl2 (bipy)2
yield of 2-propanol from propane [2]: 8.8%

C=CC [Propene]
Relative Distribution (Percent), product Propylene Oxide [1]: 100%

reductase from Methylococcus capsulatus (Bath): literature reductase, Colby et al. 1979
Specific activity (methane monooxygenase): 6000

CCC [Propane]
Relative Distribution (Percent), product 1-propanol [1]: 15%
Relative Distribution (Percent), product 2-propanol [1]: 85%

CC [Ethane]
Relative Distribution (Percent), product Ethanol [1]: 100%

c1ccccc1 [Benzene]
Relative Distribution (Percent), product Phenol [1]: 100%

CC1(C)CC1 [1,1-dimethylcyclopropane]
Relative Distribution (Percent), product 1-methylcyclobutanol [1]: 14%
Relative Distribution (Percent), product 3-methyl-3-buten-1-01 [1]: none detected
Relative Distribution (Percent), product Methylcyclopropylmethanol [1]: 86%

CCCC [Butane]
Relative Distribution (Percent), product 1-butanol [1]: 64%
Relative Distribution (Percent), product 2-butanol [1]: 36%

C [Methane]
Relative Distribution (Percent), product Methanol ([1]; about 100 mM H2O2, 2 minutes): 100%

c1ccoc1 [furan]
solubility (physchem): 64 mM (≈ 4360 µg/mL)
Km ([3]; read-out: KM(app)): 0.02 mM
turnover number ([3]; relative to the hydroxylase): 7.6 s⁻¹
